# Assay results: patent US9937182B2, “Therapeutic strategies for the treatment of preeclampsia” (UNIVERSITY OF IOWA RESEARCH FOUNDATION, priority 2013, dated 2018)
# Several values for one entry are separate records, joined by “and”; a condition that tells them apart may be missing. Identical values can stand only once. Entries after “also recorded” stand apart in the source; their conditions may differ.
# How the values were obtained:
# C57Bl/6J mice = test: Vasopressin infusion (240 ng/hr) during pregnancy, preeclampsia-like phenotypes; format: in vivo
# Procedure: Animal Studies: Female C57Bl/6J mice were obtained from Jackson Laboratories between 8-12 weeks of age. Osmotic minipumps infusing vasopressin (240 ng/hr) or saline vehicle were inserted into the subcutaneous space via incision between the scapulae. Following three days of recovery, females were mated with male C57Bl/6J mice. Presence of a vaginal plug indicated gestational day 0.5. Blood pressure was tracked before mating and throughout gestation by tail-cuff plethysmography. On gestational day 18, females were sacrificed for necropsy. Pup weight was recorded. Dam kidney sections were generated and imaged by electron microscopy by the University of Iowa Department of Pathology. All studies were approved by the University of Iowa Animal Care and Use Committee (ACURF #1211239).
# [1] = test system: 2°-branch mesenteric artery; test: Mesenteric artery vascular reactivity (pressurized myography); format: cell-based, mice
# Procedure: Mesenteric Artery Vascular Reactivity: Secondary branches of mesenteric artery were dissected and placed in chilled oxygenated (21% O2, 5% CO2, and 74% N2) Kreb's buffer. A segment (˜1 mm long) of artery was transferred to a vessel chamber (DMT), cannulated with glass micropipettes and secured with silk ligatures. The artery was slowly pressurized to 40 mmHg without flow. After 30 min equilibration, vessel viability was tested by constriction response to 100 mM KCl. Vascular responses to PE (10-9-10-5 mol/L), AVP (10-12-10-7 mol/L), and ET-1 (10-11-10-8 mol/L) were then assessed. The artery was then superfused with calcium-free Krebs buffer containing 10-5 mol/L sodium nitroprusside and 2 mmol/L EGTA to maximally dilate the vessel. Internal and external diameters were measured at 75 mm Hg. Wall thickness, media/lumen ratio and cross sectional area (CSA) were calculated as previously described by Neves, et al. (62).
# Statistics: Data were analyzed by ANOVA with repeated measures as appropriate. Post-hoc analyses were performed using Bonferroni multiple-comparisons procedures. EC50 and maximum response calculations were performed by fitting individual dose-response data sets to a four-parameter logistic function (Hillslope method); y=min+([…])/(1+(x/EC50)^Hillslope). All mRNA fold changes were calculated using the Livak method (54). All analytical comparisons were performed using SigmaStat/SigmaPlot (Systat). All data are presented as mean±sem.
# C57Bl/6J female mice [2] = test: Vasopressin infusion during pregnancy, tail-cuff blood pressure; format: in vivo; details: vasopressin 24 ng/hr s.c. compared to 2.4 ng/hr s.c., P=0.03
# Procedure: Method: Wildtype C57Bl/6J female mice were chronically infused with varied doses of arginine vasopressin (Sigma-Aldrich), via subcutaneous osmotic minipumps (Alzet), for three days preceding mating, then through gestational day 16. Mice were first acclimated to the restraint devices used for recordings for one week (“week −3”) before data recordings began. Blood pressure was assessed daily for two weeks preceding minipump implantation, through gestational day 16. Blood pressure was measured using tail-cuff plethysmography (Visitech). On any given recording day, the mouse was restrained and lightly warmed throughout the (30 min) recording period. Thirty consecutive 1 min inflation/deflation cycles were performed and successful pressure determinations were averaged within recording period for each mouse. Data sets from individual days with fewer than 10 successful determinations were excluded from analyses. Daily blood pressure values were averaged within animal for each week for statistical comparisons.
# C57Bl/6J female mice [3] = test: Vasopressin infusion 0.24, 2.4 or 24 ng/hr during pregnancy, proteinuria and intrauterine growth restriction; format: in vivo; details: for fetal masses: dams infused with 24 ng/hr compared to 2.4 ng/hr vasopressin; for urine protein content: pregnant mice, GD17-GD18, vasopressin 0.24, 2.4, 24 ng/hr
# Procedure: Method: Eighteen female C57BL/6J mice were obtained from the Jackson Laboratories. Subcutaneous osmotic minipumps (Alzet) were implanted to deliver vasopressin at 0.24, 2.4, or 24 ng/hr (six mice each group). After three days, mice were mated with wildtype C57BL/6J male mice for one night (thereby defining gestational day zero). On GD16, mice were placed into single-mouse metabolic cages (Nalgene) to collect urine for two consecutive nights. On GD18, mice were sacrificed to quantify and collect fetuses and placentas. Urine protein was assessed by commercially-available BCA assay (Pierce).
# [4] = test system: wildtype female mice (C57Bl/6 background); test: Vasopressin infusion (24 ng/hr) throughout pregnancy, fetal and placental masses and resorption at GD18; format: in vivo; details: for Raw fetal mass (Fetus): individual fetuses; for Raw placental mass (Placenta): individual placentas
# Procedure: Methods: Nine adult wildtype female mice were obtained from in-house breeding colonies that are based on the C57Bl/6 background strain. Three days before breeding, females were implanted with subcutaneous osmotic minipumps (Alzet) to continuously deliver arginine vasopressin (AVP, Sigma-Aldrich) at 24 ng/hr. Females were mated for two consecutive nights with wildtype male C57BL/6J males purchased from Jackson Laboratories. GD1 was defined based upon the presence of a vaginal sperm plug. On gestational day 18, female mice were sacrificed by CO2 asphyxiation, and fetuses and fetoplacental units were isolated by blunt dissection.
# [5] = vasopressin 240 ng/hr sc infusion vs saline
# [6] = all six pregnancies, vasopressin 24 ng/hr, GD18
# [7] = average of dam 200245-2 (HD4), vasopressin 24 ng/hr, GD18
# [8] = average of dam 200245-4 (HD5), vasopressin 24 ng/hr, GD18
# [9] = average of dam 200301-2 (HD2), vasopressin 24 ng/hr, GD18
# [10] = average of dam 200301-4 (HD3), vasopressin 24 ng/hr, GD18
# [11] = average of dam 200357-1 (HD6), vasopressin 24 ng/hr, GD18
# [12] = average of dam 200372-3 (HD9), vasopressin 24 ng/hr, GD18
# [13] = dam 200245-2 (HD4), vasopressin 24 ng/hr, GD18
# [14] = dam 200245-4 (HD5), vasopressin 24 ng/hr, GD18
# [15] = dam 200301-2 (HD2), vasopressin 24 ng/hr, GD18
# [16] = dam 200301-4 (HD3), vasopressin 24 ng/hr, GD18
# [17] = dam 200357-1 (HD6), vasopressin 24 ng/hr, GD18
# [18] = dam 200372-3 (HD9), vasopressin 24 ng/hr, GD18
smiles,measurement,setting,value
NC(=O)CC[C@@H]1NC(=O)[C@H](Cc2ccccc2)NC(=O)[C@H](Cc2ccc(O)cc2)NC(=O)[C@@H](N)CSSC[C@@H](C(=O)N2CCC[C@H]2C(=O)N[C@@H](CCCN=C(N)N)C(=O)NCC(N)=O)NC(=O)[C@H](CC(N)=O)NC1=O [Arginine vasopressin],proteinuria,C57Bl/6J mice; [5],apparent proteinuria
same,rate of pregnancy (fecundity),C57Bl/6J mice; [5],significantly reduced the rate of pregnancy; also recorded: significantly reduced fecundity
same,renal cortex electron microscopy,C57Bl/6J mice; [5],pathognomic glomerular endotheliosis
same,blood pressure in pregnancy,"C57Bl/6J mice; vasopressin 240 ng/hr sc infusion vs saline, tail-cuff",robust increase in blood pressure; also recorded: appears to induce hypertension
same,fetal growth,"C57Bl/6J mice; vasopressin 240 ng/hr sc infusion, gestational day 18",substantial fetal growth restriction
same,Maximum Response,[1]; male Control mice,52.5 ± 3.2%
same,Maximum Response,[1]; male sRA mice,17.3 ± 6.5 %
same,"blood pressure, third week of pregnancy (gestational days 14-16)",C57Bl/6J female mice [2],increased blood pressure
same,"blood pressure, third week of pregnancy (gestational days 14-16)",C57Bl/6J female mice [2]; listed as AVP,late-pregnancy increase in blood pressure
same,mice that became pregnant (of six),C57Bl/6J female mice [3]; 0.24 ng/hr infusion,two
same,mice that became pregnant (of six),C57Bl/6J female mice [3]; 2.4 ng/hr infusion,five
same,mice that became pregnant (of six),C57Bl/6J female mice [3]; 24 ng/hr infusion,three
same,preterm labor,"C57Bl/6J female mice [3]; 24 ng/hr vasopressin infusion group, gestational day 17",one pregnant mouse exhibited preterm labor
same,fetal masses,"C57Bl/6J female mice [3]; GD18, listed as Vasopressin",dose-dependent intrauterine growth restriction
same,fetal masses,"C57Bl/6J female mice [3]; GD18, listed as vasopressin",significantly suppressed
same,urine protein content,C57Bl/6J female mice [3]; listed as Vasopressin,dose-dependent proteinuria
same,urine protein content,C57Bl/6J female mice [3]; listed as vasopressin,elevated in a dose-dependent manner
same,placental masses,"C57Bl/6J female mice [3]; vasopressin 0.24, 2.4, 24 ng/hr, GD18",indistinguishable across treatment groups
same,"Avg mass, Fetus",[4]; [6],0.4929 g
same,"Avg mass, Placenta",[4]; [6],0.0628 g
same,"Resorb, total count",[4]; [6],10
same,resorbed fetoplacental units,[4]; [6],17%
same,"Avg mass, Fetus",[4]; [7],0.7741 g
same,"Avg mass, Placenta",[4]; [7],0.0536 g
same,"Avg mass, Fetus",[4]; [8],0.0371 g
same,"Avg mass, Placenta",[4]; [8],0.0388 g
same,"Avg mass, Fetus",[4]; [9],0.3741 g
same,"Avg mass, Placenta",[4]; [9],0.0760 g
same,"Avg mass, Fetus",[4]; [10],0.3054 g
same,"Avg mass, Placenta",[4]; [10],0.0672 g
same,"Avg mass, Fetus",[4]; [11],0.4660 g
same,"Avg mass, Placenta",[4]; [11],0.0545 g
same,"Avg mass, Fetus",[4]; [12],1.0077 g
same,"Avg mass, Placenta",[4]; [12],0.0761 g
same,Raw fetal mass (Fetus),[4]; [13],0.7964 g and 0.5962 g and 0.8258 g and 0.8183 g and 0.8336 g
same,Raw fetal mass (Fetus),[4]; [14],0.0154 g and 0.0699 g and 0.0261 g
same,Raw fetal mass (Fetus),[4]; [15],0.3756 g and 0.3352 g and 0.3805 g and 0.3954 g and 0.3094 g and 0.3777 g and 0.4078 g and 0.3880 g and 0.3971 g
same,Raw fetal mass (Fetus),[4]; [16],0.2866 g and 0.2599 g and 0.3328 g and 0.3609 g and 0.3085 g and 0.3087 g and 0.2955 g and 0.3356 g and 0.3129 g and 0.3034 g and 0.3086 g and 0.2516 g
same,Raw fetal mass (Fetus),[4]; [17],0.4865 g and 0.4962 g (2×) and 0.4780 g and 0.4092 g and 0.4543 g and 0.5241 g and 0.4999 g and 0.4399 g and 0.4501 g and 0.5057 g and 0.3521 g
same,Raw fetal mass (Fetus),[4]; [18],0.9287 g and 1.0395 g and 1.1359 g and 1.0723 g and 1.0064 g and 0.9679 g and 0.9034 g
same,Raw placental mass (Placenta),[4]; [13],0.0679 g and 0.0629 g and 0.0860 g and 0.0898 g and 0.0770 g and 0.0070 g and 0.0157 g and 0.0324 g and 0.0433 g
same,Raw placental mass (Placenta),[4]; [14],0.0494 g and 0.0410 g and 0.0261 g and <0.01 g (5×)
same,Raw placental mass (Placenta),[4]; [15],0.0687 g and 0.0810 g and 0.0828 g and 0.0796 g and 0.0638 g and 0.0840 g and 0.0936 g and 0.0477 g and 0.0827 g
same,Raw placental mass (Placenta),[4]; [16],0.0315 g and 0.0762 g and 0.0747 g and 0.0876 g and 0.0710 g and 0.0789 g and 0.0620 g and 0.0687 g and 0.0669 g and 0.0714 g and 0.0640 g and 0.0529 g
same,Raw placental mass (Placenta),[4]; [17],0.0599 g and 0.0709 g and 0.0663 g and 0.0509 g and 0.0480 g and 0.0648 g and 0.0767 g and 0.0678 g and 0.0426 g and 0.0471 g and 0.0569 g and 0.0499 g and 0.0067 g
same,Raw placental mass (Placenta),[4]; [18],0.0725 g and 0.0866 g and 0.0753 g and 0.0810 g and 0.0706 g and 0.0702 g and 0.0766 g
same,fetus mass across all six pregnancies,"[4]; n=48, vasopressin 24 ng/hr, GD18, P<0.0001 against 0.90 gram historical control",0.4929±0.0397 gram/fetus
same,female mice that became pregnant (of nine),"[4]; vasopressin 24 ng/hr, two nights mating",Six
